Where two headings read alike, the source gives them in different places.
Columns and labels:
Assay in all cases: tryptophan fluorescence quenching titration
Assay type in all cases: binding
HasAp [1] = target: T1, HasAp (Pseudomonas aeruginosa, UniProt G3XD33); details: read-out: KD (nM, ± SD)
HasAp [2] = target: T1, HasAp; details: read-out: KD (nM, ± SD); remark: listed apart in the source
HasAp [3] = target: T1, HasAp

C1=[N+]2c3ccccc3[N+]3=Cc4ccccc4[O][Fe-]23[O]c2ccccc21 [FeSal]
Kd (HasAp [1]): 1050 ± 100 nM

C=CC1=C(C)C2=[N+]3C1=Cc1c(C)c(C=C)c4[n]1[Ga-]31[n]3c(c(C)c(CCC(=O)O)c3=CC3=[N+]1C(=C4)C(C)=C3CCC(=O)O)=C2 (stereo not shown) [GaPPIX]
Kd (HasAp [1]): 280 ± 30 nM

C1=[N+]2c3ccccc3[N+]3=Cc4ccccc4[O][Ga-]23[O]c2ccccc21 [GaSal]
Kd (HasAp [2]): 2050 ± 280 nM

C=CC1=C(C)C2=Cc3c(C=C)c(C)c4[n]3[Fe][n]3c(c(C)c(CCC(=O)O)c3=CC3=NC(=C4)C(C)=C3CCC(=O)O)=CC1=N2 [heme]
Kd (HasAp [3]): 350 ± 50 nM

Source: publication PMC7456513 (ACS infectious diseases, 2020)
